Values quoted from earlier work, collected in PMC3161514 (Chemistry & biology, 2011).

What was measured:
[1] = test system: vancomycin-resistant Enterococci (VRE); conditions: MIC values among the lowest reported for lantibiotics, ref Ekkelenkamp, et al., 2005, Verhoef
[2] = test system: methicillin-resistant S. aureus (MRSA); conditions: MIC values among the lowest reported for lantibiotics, ref Ekkelenkamp, et al., 2005, Verhoef
[3] = test system: several strains of S. aureus; conditions: against several strains of S. aureus; ref Castiglione, et al., 2008

Substance	Activity against VRE [1]	Activity against MRSA [2]	Potency relative to epidermin [3]
epilancin 15X	active	active	–
microbisporicin	–	–	two orders of magnitude more potent
